Laboratory results reported in US20240024262A1, “USE OF VALERIC ACID IN PREPARATION OF DRUG FOR PREVENTING AND TREATING DIABETES” (Harbin Medical University, priority 2022, published 2024).

Assays:
[1] = test system: High-fat fed C57BL6/J mice; experiment: High-fat fed C57BL/6J mice, valeric acid gavage: body weight, food intake, blood glucose homeostasis (OGTT); format: in vivo
Description: In an animal experiment of high-fat model mice at a first stage, 6-8-week-old male C57BL/6J mice without specific pathogens (SPF grade) are firstly purchased from Liaoning Changsheng Biotechnology Co., Ltd., Experimental animal feeds are ordered from Beijing keaoxieli Feed Co., Ltd., including a mouse AIN-93M maintenance feed and a high-fat feed with a fat energy supply ratio of 45%; the nutrient compositions of the two feeds are in accordance with a rodent experimental animal feed formula recommended by U.S. Department of agriculture; and the AIN-93M maintenance feed is stored at a room temperature, and the high-fat feed with the energy supply ratio of 45% is stored at the low temperature of −20° C.
The animal experimental research was implemented in accordance with the rules and regulations required by Experimental Animal Management Committee of Harbin Medical University, and animals were raised in a laboratory of Clean Experimental Animal Center of School of Public Health of Harbin Medical University. The laboratory conditions are as follows: a temperature is 21.0 (±1.5) degrees Celsius, a relative humidity is 50 (±5)%, lighting is alternately performed for 12:12 hours by using a fluorescent lamp, the feed is freely taken, and distilled water is freely drunk. After being received, 6-8-week-old C57BL6/J mice as a kind of SPF experimental animals were fed in a single cage, and were arranged to freely drink the distilled water and uptake an animal feed for a week of adaptive feeding. Subsequently, the mice were weighed and randomly divided into 4 experimental groups according to the weights of the mice; and the 4 experimental groups were fed with the AIN-93M maintenance feed and the 45% high-fat feed respectively, and were treated with phosphate buffer salt solution (PBS) and different metabolite solutions by oral gavage. […]
During the feeding period of experimental animals, a scattered food amount and a leftover food amount of mice were weighed with an electronic scale and recorded and fresh feeds were changed every day, and a daily food intake was calculated. […] The weights of the mice were weighed and recorded once a week, and a clean animal bedding subjected to high-pressure disinfection was replaced. […] According to conversion of oral and intravenous doses in Pharmacological Experimental Methodology edited by Shuyun Xu and an equivalent dose ratio of rats and mice, a dose of the valeric acid is finally determined as 75 mg/kg which is approximately equal to ⅛ of a half lethal dose of the valeric acid, meeting a safety range in toxicology. […]

[2] = test system: mouse pancreatic tissues (islet β cells); experiment: Histopathology of pancreas of high-fat fed mice (HE, ERK immunohistochemistry, immunofluorescence); format: in vivo
Procedure: In order to detect a blood glucose homeostasis level and an insulin function of each mouse, an oral glucose tolerance test (OGTT) for the mice was performed. At the night before this test, test mice were fasted but not water for 16 h and transferred from a feeding room to a clean experimental operation room, so that the animals could adapt to the environment. Before the OGTT started, a weight of each mouse was accurately weighed, and an injection dose of glucose was calculated according to 2 mg/g body weight, and a tail was cut for collecting blood at 0 minute, 15 minutes, 30 minutes, 60 minutes and 120 minutes after intragastric injection of the glucose. A first drop of blood after tail cutting was discarded, and then concentrations of blood glucose (mmol/L) were continuously detected using an Accu-Chek blood glucose meter (Roche diagnosis, USA). The test mice were fasted for 12 h at the night before sampling, and were anesthetized by intraperitoneal injection of a 10% chloral hydrate-containing solution. After the intraperitoneal cavities of the mice were cut, blood was collected by apical blood collection, and the test mice were killed. After being collected, blood samples were left for still standing for 2 h at the room temperature, and then centrifuged for 15 min at […], serum at the upper layer was sucked, and then biochemical detection was performed immediately. After the blood samples were collected, pancreatic tissues of the mice were immediately cut off so as to prevent pancreatic dissolution, and heads and tails of pancreas were separately stored. Then other tissues of the mice were extracted. Pictures of tissue morphologies of various parts of the mice were photographed and stored, and weights of tissues were weighed and precisely recorded. Subsequently, the extracted tissues were divided into two parts, one of the two parts was sub-packed into an EP tube, immediately rapidly frozen in liquid nitrogen and then transferred to a −80° C. refrigerator for cryopreservation; and the other part was sub-packed into an EP tube containing 4% paraformaldehyde to be fixed for making pathological tissue sections later.
(§1) During the subsequent test, in order to observe pathological morphologies of animal tissues, paraffin sections of mouse tissues were made and subjected to HE staining, immunohistochemical staining and immunofluorescence staining. Also, mouse pancreatic tail tissues in a valeric acid intervention group and a control group were taken out from the −80° C. refrigerator and underwent TMT labeled quantitative proteome detection of the animal tissues, and differential proteins were subjected to a Western Blot test and a real-time fluorescence quantitative polymerase chain reaction (QRT PCR) test for the animal tissues to verify test results.

[3] = test system: PI3k/Pdpk1/Akt insulin metabolic pathway; experiment: WB and ELISA of key proteins of PI3k/Pdpk1/Akt insulin metabolic pathway in mouse pancreatic tissues; format: in vivo, mice; details: p value <0.05
Procedure: as §1

[4] = test system: cell proliferation and differentiation pathway; experiment: WB and ELISA of classical proteins in a cell proliferation and differentiation pathway in mouse pancreatic tissues; format: in vivo, mice
Procedure: as §1

[5] = 8 weeks of intervention, HF-V vs HF-PBS control group

**Q.** With `CCCCC(=O)O` [valeric acid] as the molecule, how does the “areas under OGTT-2h blood glucose curves” value [1, 5] read?
**A.** significantly lower

**Q.** And the fasting blood glucose [1, 5]?
**A.** significantly lower

**Q.** And the fasting insulin contents [1, 5]?
**A.** significantly lower

**Q.** And the weights of mice ([1]; valeric acid 75 mg/kg/d gavage (as sodium valerate), vs HF-PBS group, after the sixth week)?
**A.** significantly lower

**Q.** And the “proportion of ERK positive areas” value ([2]; ERK staining of paraffin sections)?
**A.** increased significantly

**Q.** And the islet areas ([2]; HE staining, HF-V group)?
**A.** obviously enlarged

**Q.** What about the number of islets ([2]; HE staining, HF-V group) of the same molecule?
**A.** increased

**Q.** And the “number of β cells in the islet” value ([2]; HE staining, HF-V group)?
**A.** significantly increased

**Q.** What about the “number of Ki67 stained nuclei in the pancreas” value ([2]; insulin/Ki67/DAPI immunofluorescence) of the same molecule?
**A.** increased significantly

**Q.** What about the “secretion proportion of the insulin in the pancreas” value ([2]; insulin/glucagon/DAPI immunofluorescence) of the same molecule?
**A.** increased significantly

**Q.** And the “expression level of Akt” value [3]?
**A.** significantly increased

**Q.** What about the “expression level of PIPS” value [3] of the same molecule?
**A.** significantly increased

**Q.** And the “expression level of Pdpk1” value [3]?
**A.** significantly increased

**Q.** And the “expression level of mTOR” value [3]?
**A.** significantly increased

**Q.** What about the “expression level of p-Akt” value [3] of the same molecule?
**A.** significantly increased

**Q.** And the “expression level of p-mTOR” value [3]?
**A.** significantly increased

**Q.** What about the “expression level of ERK1/2” value [4] of the same molecule?
**A.** significantly increased

**Q.** And the “expression level of FoxO1A” value [4]?
**A.** significantly increased

**Q.** What about the “expression level of MafA” value [4] of the same molecule?
**A.** significantly increased

**Q.** What about the “expression level of Nkx6.1” value [4] of the same molecule?
**A.** significantly increased

**Q.** And the “expression level of PDX1” value [4]?
**A.** significantly increased

**Q.** And the “expression level of p-ERK1/2” value [4]?
**A.** significantly increased
